ChEMBL document CHEMBL4613243, “Calosides A-F, Cardenolides from Calotropis gigantea and Their Cytotoxic Activity” (J Nat Prod, 2020)
Calls of active or inactive are those of the source. The rule behind the calls is not given here.

Tests used:
PANC-1 [1] = experiment: Antiproliferative activity against human PANC1 cells assessed as reduction in cell viability after 72 hrs by WST-8 assay; assay type: functional, cell-based; settings: PANC-1, 72 h
HeLa = experiment: Antiproliferative activity against human HeLa cells assessed as reduction in cell viability after 72 hrs by WST-8 assay; assay type: functional, cell-based
PANC-1 [2] = experiment: Cytotoxicity against human PANC1 cells assessed as reduction in cell viability at 0.78 uM after 74 hrs by crystal violet staining based assay; assay type: functional
PANC-1 [3] = experiment: Cytotoxicity against human PANC1 cells assessed as reduction in cell viability at 0.05 to 100 uM after 74 hrs by crystal violet staining based assay; assay type: functional

SMILES	IC50 (PANC-1 [1])	IC50 (HeLa)	Activity (PANC-1 [2])	Activity (PANC-1 [3])
C[C@]12CC[C@H]3[C@@H](CC[C@@H]4C[C@H](O[C@@H]5O[C@H](CO)[C@@H](O)[C@@H](O)[C@H]5O)CC[C@@]43CO)[C@@]1(O)CC[C@@H]2C1=CC(=O)OC1	280 nM	560 nM	–	–
C[C@]12CC[C@H]3[C@@H](CC[C@@H]4C[C@@H](O[C@@H]5O[C@H](CO)[C@@H](O)[C@@H](O)[C@H]5O)CC[C@@]43C=O)[C@@]1(O)CC[C@@H]2C1=CC(=O)OC1	150 nM	380 nM	–	–
C[C@]12CC[C@H]3[C@@H](CC[C@@H]4C[C@H](O[C@@H]5O[C@H](CO)[C@@H](O)[C@@H](O[C@H]6O[C@H](CO)[C@@H](O)[C@H](O)[C@H]6O)[C@H]5O)CC[C@@]43CO)[C@@]1(O)CC[C@@H]2C1=CC(=O)OC1	80 nM	170 nM	100%	–
C[C@H]1O[C@@H](O[C@@H]2CC[C@@]34CO[C@@]5(CC[C@@H]3C2)[C@@H]4CC[C@]2(C)[C@H](C3=CC(=O)OC3)CC[C@@H]25)[C@H](O)[C@H](O)[C@@H]1O	4600 nM	> 10000 nM	–	–
Nc1ccn([C@@H]2O[C@H](CO)[C@@H](O)C2(F)F)c(=O)n1 [GEMCITABINE]	5900 nM	–	–	inactive
COC(=O)[C@@]1(C)C[C@@H](C)O[C@H]1O[C@@H]1C[C@H]2CC[C@@H]3[C@H](CC[C@]4(C)[C@@H](C5=CC(=O)OC5)C[C@@H](O)[C@]34O)[C@@]2(C(=O)O)C[C@H]1O	5200 nM	> 10000 nM	–	–
C[C@]12CC[C@H]3[C@@H](CC[C@@H]4C[C@H](O[C@@H]5O[C@H](CO)[C@@H](O)[C@H](O[C@H]6O[C@H](CO)[C@@H](O)[C@H](O)[C@H]6O)[C@H]5O)CC[C@@]43CO)[C@@]1(O)CC[C@@H]2C1=CC(=O)OC1	70 nM	170 nM	100%	–
C[C@]12CC[C@H]3[C@@H](CC[C@@H]4C[C@H](O[C@@H]5O[C@H](CO)[C@@H](O)[C@@H](O)[C@H]5O)CC[C@@]43COC=O)[C@@]1(O)CC[C@@H]2C1=CC(=O)OC1	250 nM	670 nM	–	–
C[C@]12CC[C@H]3[C@@H](CC[C@@H]4C[C@@H](O)[C@H](O)C[C@@]43C=O)[C@@]1(O)[C@H](O)C[C@@H]2C1=CC(=O)OC1	> 10000 nM	> 10000 nM	–	–
C[C@]12CC[C@H]3[C@@H](CC[C@@H]4C[C@@H](O)[C@H](O)C[C@@]43CO)[C@@]1(O)CC[C@@H]2C1=CC(=O)OC1	5100 nM	> 10000 nM	–	–
C[C@H]1C[C@@](O)(CC(=O)O)[C@]2(O)O[C@@H]3C[C@@]4(C=O)[C@@H](CC[C@@H]5[C@@H]4CC[C@]4(C)[C@@H](C6=CC(=O)OC6)CC[C@]54O)C[C@H]3O[C@H]2O1	1000 nM	1600 nM	–	–
C[C@@H]1C[C@H](O)[C@]2(O)O[C@@H]3C[C@@]4(C=O)[C@@H](CC[C@@H]5[C@@H]4CC[C@]4(C)[C@@H](C6=CC(=O)OC6)CC[C@]54O)C[C@H]3O[C@@H]2O1 [CALOTROPIN]	> 10000 nM	> 10000 nM	–	–
